Laboratory results as given in ChEMBL document CHEMBL1201862, “PubChem BioAssay data set” (2004).
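Briefly, cells in 96-well plates were exposed to five compound concentrations for 48 h, and endpoints were estimated by linear interpolation. Here, GI50 denotes the concentration required for 50% inhibition of growth.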 The source made the active and inactive calls. No stated cut-off is given here; in the data, active = GI50 up to about 1.1 µM and inactive = higher.

How the values were obtained:
Assay in all cases: NCI anticancer screen, dose series, 48 h
SN12C = tested on: SN12C
MOLT-4 = tested on: MOLT-4
UACC-257 = tested on: UACC-257
A498 = tested on: A498
TK-10 = tested on: TK-10
SK-OV-3 = tested on: SK-OV-3
OVCAR-5 = tested on: OVCAR-5
UO-31 = tested on: UO-31
ACHN = tested on: ACHN
SNB-75 = tested on: SNB-75
OVCAR-4 = tested on: OVCAR-4
LOX IMVI = tested on: LOX IMVI
IGROV-1 = tested on: IGROV-1
SNB-19 = tested on: SNB-19
HCT-15 = tested on: HCT-15
EKVX = tested on: EKVX
OVCAR-8 = tested on: OVCAR-8
SF-268 = tested on: SF-268
SK-MEL-5 = tested on: SK-MEL-5
HCT-116 = tested on: HCT-116

SMILES: Cc1ccc2cccc(OC(=O)c3cc4c(cc3Cl)Sc3nccn3S4(=O)=O)c2n1
- GI50 (SN12C): 12.8 µM (inactive)
- GI50 (MOLT-4): 4.55 µM (inactive)
- GI50 (UACC-257): 12.2 µM (inactive)
- GI50 (A498): 17.7 µM (inactive)
- GI50 (TK-10): 11 µM (inactive)
- GI50 (SK-OV-3): 22.8 µM (inactive)
- GI50 (OVCAR-5): 23.8 µM (inactive)
- GI50 (UO-31): 2.05 µM (inactive)
- GI50 (ACHN): 10.5 µM (inactive)
- GI50 (SNB-75): 9.66 µM (inactive)
- GI50 (OVCAR-4): 11.3 µM (inactive)
- GI50 (LOX IMVI): 7.13 µM (inactive)
- GI50 (IGROV-1): 6.37 µM (inactive)
- GI50 (SNB-19): 12.9 µM (inactive)
- GI50 (HCT-15): 5.26 µM
- GI50 (EKVX): 16.7 µM (inactive)
- GI50 (OVCAR-8): 4.71 µM (inactive)
- GI50 (SF-268): 6.98 µM (inactive)
- GI50 (SK-MEL-5): 12.3 µM (inactive)
- GI50 (HCT-116): 6.53 µM (inactive)

SMILES: CCN(CC)CCCC(C)Nc1ccnc2cc3ccccc3cc12 (stereo not given)
- GI50 (SN12C): 14.2 µM (inactive)
- GI50 (MOLT-4): 4.09 µM (inactive)
- GI50 (UACC-257): 23.8 µM (inactive)
- GI50 (A498): 22.6 µM (inactive)
- GI50 (TK-10): 10.2 µM (inactive)
- GI50 (SK-OV-3): 8.05 µM (inactive)
- GI50 (OVCAR-5): 21.7 µM (inactive)
- GI50 (UO-31): 6.32 µM (inactive)
- GI50 (ACHN): 3.72 µM (inactive)
- GI50 (SNB-75): 6.95 µM (inactive)
- GI50 (OVCAR-4): 3.24 µM (inactive)
- GI50 (LOX IMVI): 4.91 µM (inactive)
- GI50 (IGROV-1): 4.43 µM (inactive)
- GI50 (SNB-19): 7.53 µM (inactive)
- GI50 (HCT-15): 3.23 µM
- GI50 (EKVX): 32.2 µM (inactive)
- GI50 (OVCAR-8): 7.23 µM (inactive)
- GI50 (SF-268): 4.86 µM (inactive)
- GI50 (SK-MEL-5): 19.8 µM (inactive)
- GI50 (HCT-116): 5.75 µM (inactive)

SMILES: CC[C@@]1(O)C(=O)OCc2c1cc1n(c2=O)Cc2c-1nc1ccccc1c2/C=N\NC(=O)C(N)Cc1c[nH]cn1 (stereo not given in full)
- GI50 (SN12C): 0.0673 µM (active)
- GI50 (MOLT-4): 0.0259 µM (active)
- GI50 (UACC-257): 2.68 µM (inactive)
- GI50 (A498): 0.857 µM (active)
- GI50 (TK-10): 13.3 µM (inactive)
- GI50 (SK-OV-3): 0.234 µM (active)
- GI50 (OVCAR-5): 3.56 µM (inactive)
- GI50 (UO-31): 0.348 µM (active)
- GI50 (ACHN): 0.043 µM (active)
- GI50 (SNB-75): 0.067 µM (active)
- GI50 (OVCAR-4): 4.41 µM (inactive)
- GI50 (LOX IMVI): 0.131 µM (active)
- GI50 (IGROV-1): 3.75 µM (inactive)
- GI50 (SNB-19): 0.0908 µM (active)
- GI50 (HCT-15): 1.34 µM
- GI50 (EKVX): 7.45 µM (inactive)
- GI50 (OVCAR-8): 0.184 µM (active)
- GI50 (SF-268): 0.0545 µM (active)
- GI50 (SK-MEL-5): 0.222 µM (active)
- GI50 (HCT-116): 0.43 µM (active)

SMILES: N[C@H](C(=O)O)[C@@H](Cl)CC(=O)O
- GI50 (SN12C): > 100 µM (inactive)
- GI50 (MOLT-4): > 100 µM (inactive)
- GI50 (UACC-257): > 100 µM (inactive)
- GI50 (A498): > 100 µM (inactive)
- GI50 (TK-10): > 100 µM (inactive)
- GI50 (SK-OV-3): > 100 µM (inactive)
- GI50 (OVCAR-5): > 100 µM (inactive)
- GI50 (UO-31): > 100 µM (inactive)
- GI50 (ACHN): > 100 µM (inactive)
- GI50 (SNB-75): > 100 µM (inactive)
- GI50 (OVCAR-4): > 100 µM (inactive)
- GI50 (LOX IMVI): > 100 µM (inactive)
- GI50 (IGROV-1): > 100 µM (inactive)
- GI50 (SNB-19): > 100 µM (inactive)
- GI50 (HCT-15): > 100 µM
- GI50 (EKVX): > 100 µM (inactive)
- GI50 (OVCAR-8): > 100 µM (inactive)
- GI50 (SF-268): > 100 µM (inactive)
- GI50 (SK-MEL-5): > 100 µM (inactive)
- GI50 (HCT-116): > 100 µM (inactive)

SMILES: COc1cccc2c1CCc1ccccc1CC2=O
- GI50 (SN12C): > 100 µM (inactive)
- GI50 (MOLT-4): > 100 µM (inactive)
- GI50 (UACC-257): > 100 µM (inactive)
- GI50 (A498): > 100 µM (inactive)
- GI50 (TK-10): > 100 µM (inactive)
- GI50 (SK-OV-3): > 100 µM (inactive)
- GI50 (OVCAR-5): > 100 µM (inactive)
- GI50 (UO-31): > 100 µM (inactive)
- GI50 (ACHN): > 100 µM (inactive)
- GI50 (SNB-75): > 100 µM (inactive)
- GI50 (OVCAR-4): 39.2 µM (inactive)
- GI50 (LOX IMVI): > 100 µM (inactive)
- GI50 (IGROV-1): > 100 µM (inactive)
- GI50 (SNB-19): > 100 µM (inactive)
- GI50 (HCT-15): > 100 µM
- GI50 (EKVX): > 100 µM (inactive)
- GI50 (OVCAR-8): > 100 µM (inactive)
- GI50 (SF-268): > 100 µM (inactive)
- GI50 (SK-MEL-5): > 100 µM (inactive)
- GI50 (HCT-116): > 100 µM (inactive)

SMILES: CC(OC(C)(C)C)[C@H](NC(=O)OCc1ccccc1)C(=O)NC(OCc1ccccc1)[C@H]1COC(C)(C)O1 (stereo not given in full)
- GI50 (SN12C): > 10 µM (inactive)
- GI50 (MOLT-4): > 10 µM (inactive)
- GI50 (UACC-257): > 10 µM (inactive)
- GI50 (A498): > 10 µM (inactive)
- GI50 (TK-10): > 10 µM (inactive)
- GI50 (SK-OV-3): > 10 µM (inactive)
- GI50 (OVCAR-5): > 10 µM (inactive)
- GI50 (UO-31): > 10 µM (inactive)
- GI50 (ACHN): > 10 µM (inactive)
- GI50 (SNB-75): > 10 µM (inactive)
- GI50 (OVCAR-4): > 10 µM (inactive)
- GI50 (LOX IMVI): > 10 µM (inactive)
- GI50 (IGROV-1): > 10 µM (inactive)
- GI50 (SNB-19): > 10 µM (inactive)
- GI50 (HCT-15): > 10 µM
- GI50 (EKVX): > 10 µM (inactive)
- GI50 (OVCAR-8): > 10 µM (inactive)
- GI50 (SF-268): 40.3 µM (inactive)
- GI50 (SK-MEL-5): > 10 µM (inactive)
- GI50 (HCT-116): 50.7 µM (inactive)

SMILES: C(=C(c1ccc(OC2CCCCO2)cc1)c1ccc(OC2CCCCO2)cc1)c1ccccc1 (stereo not given)
- GI50 (SN12C): 1.02 µM (active)
- GI50 (MOLT-4): 0.392 µM (active)
- GI50 (UACC-257): 0.378 µM (active)
- GI50 (A498): 1.31 µM (inactive)
- GI50 (TK-10): 1.14 µM (inactive)
- GI50 (SK-OV-3): 1.29 µM (inactive)
- GI50 (OVCAR-5): 1.06 µM (active)
- GI50 (UO-31): 0.895 µM (active)
- GI50 (ACHN): 1.06 µM (active)
- GI50 (SNB-75): 0.605 µM (active)
- GI50 (OVCAR-4): 0.392 µM (active)
- GI50 (LOX IMVI): 0.232 µM (active)
- GI50 (IGROV-1): 0.524 µM (active)
- GI50 (SNB-19): 1.26 µM (inactive)
- GI50 (HCT-15): 0.8 µM
- GI50 (EKVX): 0.456 µM (active)
- GI50 (OVCAR-8): 0.598 µM (active)
- GI50 (SF-268): 1.09 µM (active)
- GI50 (SK-MEL-5): 0.444 µM (active)
- GI50 (HCT-116): 0.412 µM (active)

SMILES: Cc1ccc(S(=O)(=O)Nc2cc(O)nc3c2CCC3)cc1
- GI50 (SN12C): > 100 µM (inactive)
- GI50 (MOLT-4): 42.9 µM (inactive)
- GI50 (UACC-257): > 100 µM (inactive)
- GI50 (A498): > 100 µM (inactive)
- GI50 (TK-10): > 100 µM (inactive)
- GI50 (SK-OV-3): > 100 µM (inactive)
- GI50 (OVCAR-5): > 100 µM (inactive)
- GI50 (UO-31): > 100 µM (inactive)
- GI50 (ACHN): > 100 µM (inactive)
- GI50 (SNB-75): > 100 µM (inactive)
- GI50 (OVCAR-4): 57.1 µM (inactive)
- GI50 (LOX IMVI): > 100 µM (inactive)
- GI50 (IGROV-1): > 100 µM (inactive)
- GI50 (SNB-19): > 100 µM (inactive)
- GI50 (HCT-15): > 100 µM
- GI50 (EKVX): > 100 µM (inactive)
- GI50 (OVCAR-8): > 100 µM (inactive)
- GI50 (SF-268): > 100 µM (inactive)
- GI50 (SK-MEL-5): 73.5 µM (inactive)
- GI50 (HCT-116): > 100 µM (inactive)

SMILES: O=C(/C=C/c1ccc(O)c(O)c1)NC(CO)C(=O)O (stereo not given)
- GI50 (SN12C): > 100 µM (inactive)
- GI50 (MOLT-4): > 100 µM (inactive)
- GI50 (UACC-257): > 100 µM (inactive)
- GI50 (A498): > 100 µM (inactive)
- GI50 (TK-10): > 100 µM (inactive)
- GI50 (SK-OV-3): > 100 µM (inactive)
- GI50 (OVCAR-5): > 100 µM (inactive)
- GI50 (UO-31): > 100 µM (inactive)
- GI50 (ACHN): > 100 µM (inactive)
- GI50 (SNB-75): > 100 µM (inactive)
- GI50 (OVCAR-4): > 100 µM (inactive)
- GI50 (LOX IMVI): > 100 µM (inactive)
- GI50 (IGROV-1): 0.612 µM (active)
- GI50 (SNB-19): > 100 µM (inactive)
- GI50 (HCT-15): 1.08 µM
- GI50 (EKVX): > 100 µM (inactive)
- GI50 (OVCAR-8): > 100 µM (inactive)
- GI50 (SF-268): > 100 µM (inactive)
- GI50 (SK-MEL-5): > 100 µM (inactive)
- GI50 (HCT-116): > 100 µM (inactive)

SMILES: CCN(C(C)=O)c1cnc(/C=N/NC(N)=S)c2ccccc12
- GI50 (SN12C): 3.21 µM (inactive)
- GI50 (MOLT-4): 1.96 µM (inactive)
- GI50 (UACC-257): 30.1 µM (inactive)
- GI50 (A498): 19.8 µM (inactive)
- GI50 (TK-10): 4.59 µM (inactive)
- GI50 (SK-OV-3): 3.65 µM (inactive)
- GI50 (OVCAR-5): > 20 µM (inactive)
- GI50 (UO-31): 1.81 µM (inactive)
- GI50 (ACHN): 1.76 µM (inactive)
- GI50 (SNB-75): 18.7 µM (inactive)
- GI50 (OVCAR-4): 9.31 µM (inactive)
- GI50 (LOX IMVI): 1.38 µM (inactive)
- GI50 (IGROV-1): 2.76 µM (inactive)
- GI50 (SNB-19): 3.49 µM (inactive)
- GI50 (HCT-15): 2.25 µM
- GI50 (EKVX): 4.29 µM (inactive)
- GI50 (OVCAR-8): 2.29 µM (inactive)
- GI50 (SF-268): 1.58 µM (inactive)
- GI50 (SK-MEL-5): 2.84 µM (inactive)
- GI50 (HCT-116): 2.67 µM (inactive)
